Measurements taken from patent publication US9944603B2, “Compounds and methods for the treatment of cystic fibrosis” (Flatley Discovery Lab, LLC, priority 2013, dated 2018).

Molecular target: T1, human F508del CFTR (Homo sapiens, UniProt P13569, DEL508-508)
T1 construct: expressed in transfected cells
Test: CFTR-YFP Assay, CFTR Corrector Protocol (YFP flux assay)
Type: cell-based
Conditions: for Emax: normalized to the positive control, read-out: EMAX (% Efficacy, EMAX normalized to the positive control)

T1 sequence (P13569 with tags, fused parts or gaps DEL508-508): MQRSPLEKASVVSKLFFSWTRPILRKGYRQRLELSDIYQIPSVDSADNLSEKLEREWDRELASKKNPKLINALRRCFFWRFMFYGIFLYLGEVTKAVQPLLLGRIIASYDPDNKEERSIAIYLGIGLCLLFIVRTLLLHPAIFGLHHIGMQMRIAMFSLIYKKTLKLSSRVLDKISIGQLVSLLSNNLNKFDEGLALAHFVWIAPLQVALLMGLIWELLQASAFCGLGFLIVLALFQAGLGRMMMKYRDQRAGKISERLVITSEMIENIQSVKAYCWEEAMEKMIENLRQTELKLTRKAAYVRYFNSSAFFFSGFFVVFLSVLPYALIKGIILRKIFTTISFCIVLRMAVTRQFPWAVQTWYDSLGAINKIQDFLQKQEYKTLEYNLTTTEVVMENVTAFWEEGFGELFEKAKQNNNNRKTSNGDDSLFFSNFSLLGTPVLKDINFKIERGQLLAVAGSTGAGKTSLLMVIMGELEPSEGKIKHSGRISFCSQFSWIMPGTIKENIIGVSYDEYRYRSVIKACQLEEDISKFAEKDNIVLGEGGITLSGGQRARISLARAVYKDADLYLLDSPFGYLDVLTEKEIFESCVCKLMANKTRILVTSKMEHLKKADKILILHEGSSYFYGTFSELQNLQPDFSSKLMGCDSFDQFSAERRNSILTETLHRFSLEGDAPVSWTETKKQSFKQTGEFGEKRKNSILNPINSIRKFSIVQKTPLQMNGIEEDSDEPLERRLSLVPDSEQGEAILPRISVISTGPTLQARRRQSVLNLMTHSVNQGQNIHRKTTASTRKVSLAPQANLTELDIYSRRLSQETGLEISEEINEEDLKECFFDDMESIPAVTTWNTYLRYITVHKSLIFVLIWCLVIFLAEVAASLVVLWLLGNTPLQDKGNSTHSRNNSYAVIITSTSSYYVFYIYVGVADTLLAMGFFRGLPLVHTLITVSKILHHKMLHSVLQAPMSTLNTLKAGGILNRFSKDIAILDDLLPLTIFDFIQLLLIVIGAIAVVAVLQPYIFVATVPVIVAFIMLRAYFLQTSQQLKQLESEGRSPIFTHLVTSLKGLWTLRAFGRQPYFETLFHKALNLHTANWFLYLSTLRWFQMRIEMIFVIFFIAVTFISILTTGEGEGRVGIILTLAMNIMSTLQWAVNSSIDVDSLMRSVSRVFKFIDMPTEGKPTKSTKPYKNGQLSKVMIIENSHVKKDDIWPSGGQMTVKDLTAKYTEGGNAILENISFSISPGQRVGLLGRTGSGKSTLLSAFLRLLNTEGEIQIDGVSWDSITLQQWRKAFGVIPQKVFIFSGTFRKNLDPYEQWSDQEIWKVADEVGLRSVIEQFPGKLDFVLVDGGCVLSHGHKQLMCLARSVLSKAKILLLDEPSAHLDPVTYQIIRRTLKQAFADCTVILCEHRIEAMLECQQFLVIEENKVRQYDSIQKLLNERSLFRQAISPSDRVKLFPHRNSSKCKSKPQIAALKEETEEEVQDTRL

SMILES	EC50 [µM]	Emax [%]
CC(=O)N1c2ccc(S(=O)(=O)N3CCC(n4c(-c5ccc(F)cc5F)nc5cccnc54)CC3)cc2CC1C (stereo not drawn) [Example 146]	< 10	10 to 30
Cc1cc2cc(S(=O)(=O)N3CCC(n4c(-c5ccncn5)nc5cccnc54)CC3)ccc2[nH]1 [Example 147]	< 10	10 to 30
CC1Cc2cc(S(=O)(=O)N3CCC(n4c(-c5ccncc5F)nc5cccnc54)CC3)ccc2N1 (stereo not drawn) [Example 148]	< 10	10 to 30
CC1Cc2cc(S(=O)(=O)N3CCC(n4c(-c5ccc(F)cc5F)nc5cccnc54)CC3)ccc2N1 (stereo not drawn) [Example 149]	< 10	10 to 30
COc1ccc2c(c1)nc(-c1ccncc1F)n2C1CCN(S(=O)(=O)c2ccc3c(c2)OC(F)(F)O3)CC1 [Example 150]	10 to 20	30 to 80
CCc1ccc(S(=O)(=O)N2CCC(n3c(-c4ccncc4F)nc4cc(OC)ccc43)CC2)cc1 [Example 151]	< 10	30 to 80
CC(=O)N1c2ccc(S(=O)(=O)N3CCC(n4c(-c5ccncn5)nc5cccnc54)CC3)cc2CC1C (stereo not drawn) [Example 152]	10 to 20	10 to 30
COc1ccc2c(c1)nc(-c1ccccc1Cl)n2C1CCN(S(=O)(=O)c2ccc3c(c2)OC(F)(F)O3)CC1 [Example 153]	< 10	30 to 80
COc1ccc2c(c1)nc(-c1ccncc1Cl)n2C1CCN(S(=O)(=O)c2ccc3c(c2)OC(F)(F)O3)CC1 [Example 154]	< 10	30 to 80
CCc1ccc(S(=O)(=O)N2CCC(n3c(-c4ccccc4Cl)nc4cc(OC)ccc43)CC2)cc1 [Example 155]	< 10	30 to 80
CCc1ccc(S(=O)(=O)N2CCC(n3c(-c4ccncc4Cl)nc4cc(OC)ccc43)CC2)cc1 [Example 156]	< 10	30 to 80
O=S(=O)(c1ccc2snc(Cl)c2c1)N1CCC(n2c(-c3ccncc3Cl)nc3cccnc32)CC1 [Example 157]	< 10	10 to 30
O=S(=O)(c1ccc2snc(Cl)c2c1)N1CCC(n2c(-c3ccncc3F)nc3cccnc32)CC1 [Example 158]	10 to 20	10 to 30
O=S(=O)(c1ccc2snc(Cl)c2c1)N1CCC(n2c(-c3ccc(F)cc3F)nc3cccnc32)CC1 [Example 159]	< 10	10 to 30
COc1ccc2c(c1)nc(-c1ccncc1Cl)n2C1CCN(S(=O)(=O)c2ccc3nc(C)oc3c2)CC1 [Example 160]	< 10	30 to 80
O=S(=O)(c1ccc2cc[nH]c2c1)N1CCC(n2c(-c3ccncc3Cl)nc3cccnc32)CC1 [Example 161]	10 to 20	10 to 30
O=S(=O)(c1ccc2cc[nH]c2c1)N1CCC(n2c(-c3ccncc3F)nc3cccnc32)CC1 [Example 162]	< 10	10 to 30
COc1ccc2c(c1)nc(-c1ccncc1F)n2C1CCN(S(=O)(=O)c2ccc3nc(C)oc3c2)CC1 [Example 163]	< 10	> 80
COc1ccc2c(c1)nc(-c1ccc(F)cc1F)n2C1CCN(S(=O)(=O)c2ccc3nc(C)oc3c2)CC1 [Example 164]	< 10	> 80
Cc1ccnc2c1nc(-c1ccncc1F)n2C1CCN(S(=O)(=O)c2ccc3c(c2)OC(F)(F)O3)CC1 [Example 165]	< 10	30 to 80
Cc1ccnc2c1nc(-c1ccncc1Cl)n2C1CCN(S(=O)(=O)c2ccc3c(c2)OC(F)(F)O3)CC1 [Example 166]	< 10	30 to 80
CCc1ccc(S(=O)(=O)N2CCC(n3c(-c4ccccc4Cl)nc4cc(O)ccc43)CC2)cc1 [Example 167]	> 20	10 to 30
CCc1ccc(S(=O)(=O)N2CCC(n3c(-c4ccncc4Cl)nc4cc(O)ccc43)CC2)cc1 [Example 168]	< 10	30 to 80
CCc1ccc(S(=O)(=O)N2CCC(n3c(-c4ccncc4F)nc4c(OC)ccnc43)CC2)cc1 [Example 169]	< 10	30 to 80
CCc1ccc(S(=O)(=O)N2CCC(n3c(-c4ccncc4Cl)nc4c(OC)ccnc43)CC2)cc1 [Example 170]	> 20	10 to 30
COc1ccc(S(=O)(=O)N2CCC(N(C(=O)c3ccccc3)c3ccccn3)CC2)cc1F [Example 171]	< 10	10 to 30
COc1ccc(S(=O)(=O)N2CCC(N(C(=O)c3ccccc3)c3cccc(C)n3)CC2)cc1Cl [Example 174]	> 20	10 to 30
CCc1ccc(S(=O)(=O)N2CCC(N(C(=O)Nc3ccccc3Cl)c3cccc(C)n3)CC2)cc1 [Example 175, 3-(2-chlorophenyl)-1-(1-((4-ethylphenyl)sulfonyl)piperidin-4-yl)-1-(6-methylpyridin-2-yl)urea]	< 10	10 to 30
COc1ccc(S(=O)(=O)N2CCC(N(C(=O)Nc3ccccc3Cl)c3cccc(C)n3)CC2)cc1Cl [Example 176]	< 10	10 to 30
CCc1ccc(S(=O)(=O)N2CCC(N(C(=O)Nc3ccccc3Cl)c3ccccn3)CC2)cc1 [Example 177]	< 10	10 to 30
